Experimental data taken from US8236509B2, “Method for preparing antibody monolayers which have controlled orientation using peptide hybrid” (Korea Research Institute of Bioscience and Biotechnology, priority 2007, dated 2012).
Entries after “also recorded” stand apart in the source; their conditions may differ.

How the values were obtained:
[1] = test system: human, rabbit, mouse and goat antibodies; experiment: SPR binding capacity on peptide-hybrid-treated CM-5 Au sensor chip, different antibodies; details: antibody 5 μg/ml in PBS
Experimental: (§1) Then, PBS containing 100 μM of the peptide hybrid was spilled thereon at the same speed for 30 minutes. […] The surface area remaining non-reacted with the peptide hybrid was inactivated by using 1 M of ethanolamine solution (pH 8.5).

[2] = test system: human originated IgG (HIgGs 1-3); experiment: SPR binding capacity on peptide-hybrid-treated CM-5 Au sensor chip
Experimental: as §1

rabbit originated IgG [3] = target: T1, rabbit originated IgG (Oryctolagus cuniculus, UniProt P01870); experiment: as above
T1 construct: purchased Sigma-Aldrich (USA)
T1 sequence (P01870 whole entry): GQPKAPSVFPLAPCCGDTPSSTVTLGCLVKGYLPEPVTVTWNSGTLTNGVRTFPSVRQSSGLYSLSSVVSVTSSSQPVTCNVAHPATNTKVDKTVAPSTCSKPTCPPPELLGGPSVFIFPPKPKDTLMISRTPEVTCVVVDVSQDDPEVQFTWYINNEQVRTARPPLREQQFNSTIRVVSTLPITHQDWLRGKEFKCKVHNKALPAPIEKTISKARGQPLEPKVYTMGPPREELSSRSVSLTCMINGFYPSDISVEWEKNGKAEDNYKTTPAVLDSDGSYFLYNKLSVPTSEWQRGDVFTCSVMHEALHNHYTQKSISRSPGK
Experimental: as §1

[4] = test system: HIgG (mixture of HIgG 1-HIgG 3); experiment: Cy3-labeled antibody binding to glass plate surface-treated with peptide hybrid (fluorescence); parameters: species or system human; details: fluorescence image
Experimental: (§2) The glass plate was treated with a mixed solution of 95% sulfuric acid and 5% hydrogen peroxide (V/V 3:1) at 60° C. for 30 minutes, followed by washing with distilled water and ethanol. The washed glass plate was soaked in 1% APTS, followed by reaction for 4 hours at room temperature to introduce amine group. The amine group introduced glass plate was reacted in 1 M succinic anhydride-DMF solution at 37° C. for 4 hours to generate carboxyl group on the glass plate. The glass plate was washed with distilled water and ethanol and dried using nitrogen gas and then stored in a vacuum drier. The carboxyl group introduced glass plate was treated with a mixed solution of 0.1 M EDC and 0.025 M NHS for 15 minutes to activate its surface. The activated glass plate was washed with distilled water and dried using nitrogen gas. The peptide hybrid for protein immobilization of 1a was dissolved in PBS containing 40% glycerol at the final concentration of 0.5 mg/ml, which was dropped on the glass plate by 1 μl per each drop, followed by reaction for 2 hours. The non-reacted active ester remaining on the glass plate was inactivated by using 1 M of ethanolamine (pH 8.5) and washed with PBS. […]

MIgGA = experiment: SPR binding capacity, antibody isotypes; parameters: species or system mouse; details: CM-5 Au sensor chip
Experimental: as §1

MIgG2 = experiment: SPR binding capacity, antibody isotypes; parameters: species or system mouse; details: CM-5 Au sensor chip
Experimental: as §1

MIgG3 = experiment: SPR binding capacity, antibody isotypes; parameters: species or system mouse; details: CM-5 Au sensor chip
Experimental: as §1

mouse originated IgG = experiment: Antibody binding to magnetic micro beads surface-treated with peptide hybrid (PAGE); details: antibody 0.1 mg/ml, bead 2 mg/ml
Experimental: (§3) The surface of the magnetic micro bead containing a carboxyl group was activated by loading 25 mM of MES (pH 6) containing NHS (0.4 M) and EDC (0.2 M). Only magnetic micro bead was recovered by using a magnet and the activated magnetic micro bead was reacted with 0.2 mg/ml of the peptide hybrid of 1a at room temperature for one hour. The activated magnetic micro bead was reacted with PBS alone for the control group. Non-reacted active ester group was inactivated by using 1 M of ethanolamine (pH 8.5). Both the magnetic micro bead with the peptide hybrid of 1a attached and the magnetic micro bead without the peptide hybrid of 1a were repeatedly washed by PBS and diluted in PBS (final concentration: 5 mg/ml).
(§4) To confirm the binding of the magnetic micro bead adhered with the peptide hybrid of 1a to the antibody, 2 mg/ml (final concentration) of the magnetic micro bead and 0.1 mg/ml of the antibody used in Example <3-2> were mixed to induce binding reaction. After inducing reaction for one hour at room temperature, the magnetic micro bead was dragged down to the bottom of the vessel by using a magnet and the supernatant was eliminated. This process was repeated five times to remove the non-reacted antibodies. The magnetic micro bead reacted with the antibody was added in PAGE loading buffer containing a reducing agent (2-mercaptoethanol), which was heated to separate the antibody chain from the magnetic micro bead, followed by PAGE.
(§5) The antibody bound to the magnetic micro bead was quantified by using 12% polyacrylamide gel containing 10% SDS. Particularly, 20 μl of PBS containing 2% micro bead was mixed with 5 μl of sample buffer (pH 6.8; 60 mM Tris-HCl, 25% glycerol, 2% SDS, 14.4 mM 2-mercaptoethanol, 0.1% bromophenol blue, H2O), followed by heating at 90° C. for 10 minutes. 15 μl of the sample was placed on each well of polyacrylamide gel. 200 V of voltage was applied thereto at room temperature for one hour to migrate sample, followed by dipping the gel in the staining solution (0.5% coomassie blue, 45% methanol, 10% acetic acid solution) at room temperature for 30 minutes. Upon completion of staining, the gel was transferred into the destaining solution (10% methanol, 10% acetic acid solution), followed by stirring at room temperature for 3 hours. The excessive staining reagent was eliminated by washing.

goat originated IgG = experiment: as above; details: antibody 0.1 mg/ml, bead 2 mg/ml
Experimental: as §3, §4, §5

rabbit originated IgG [5] = target: T1, rabbit originated IgG; experiment: as above; details: antibody 0.1 mg/ml, bead 2 mg/ml
Experimental: as §3, §4, §5

human originated HIgG = experiment: as above; details: antibody 0.1 mg/ml, bead 2 mg/ml
Experimental: as §3, §4, §5

rabbit IgG [6] = target: T2, rabbit IgG (Oryctolagus cuniculus, UniProt P01870); experiment: Cy3-labeled antibody binding to glass plate surface-treated with peptide hybrid (fluorescence); parameters: purchased Sigma-Aldrich (USA); details: fluorescence image
T2 sequence (P01870 whole entry): as above
Experimental: as §2

CRP = details: SPR, CRP 5 μg/ml, anti-CRP antibody immobilized via the hybrid
Experimental: Then, PBS containing CRP at the same concentration as the above was spilled thereon, followed by measuring the antigen-antibody binding by surface plasmon resonance (SPR) using Biacore 3000. The surface of the chip was recovered by 20 mM NaOH solution for the repeat of the experiment to measure the antigen-antibody binding.
A buffer containing 0.2 M EDC and 0.05 M NHS was spilled on the dextran CM-5 Au sensor chip (BIacore AB, Sweden) at the speed of 7 μl/minute to activate carboxyl group on the surface of the sensor chip. Then, PBS containing 5 μg/ml of anti-CRP antibody was spilled thereon for 30 minutes at the same speed. The antibody was bound via the reaction of the terminal amine group with the carboxyl group on the sensor chip activated as NHS ester form. The surface not reacted with the antibody was inactivated by using 1 M ethanolamine solution (pH 8.5).
PBS containing 5 μg/ml of CRP was spilled on the anti-CRP antibody chip with the chemical immobilization and the anti-CRP antibody chip with the immobilization by the peptide hybrid of 1a respectively at the speed of 10 μl/minute, followed by measuring the degree of antigen-antibody binding by surface plasmon resonance using Biacore 3000.

HIgG1 [7] = experiment: SPR binding affinity (Biacore 3000, nonlinear regression); parameters: species or system human; details: antibody 100-1,000 nM, CM-5 chip
Experimental: The values were analyzed by nonlinear regression using BIAevaluation software equipped in Biacore 3000 to draw a theoretical line graph (FIG. 4a).

[8] = Stability of peptide-treated chip surface to washing with 20 mM NaOH and reuse; type: physicochemical; details: CM-5 chip, reused for antigen-antibody binding
rabbit IgG [9] = target: T2, rabbit IgG; experiment: biochemical
[10] = test system: mouse originated antibodies (mixed composition of MIgGs 1-3); experiment: SPR binding capacity on peptide-hybrid-treated CM-5 Au sensor chip
Experimental: as §1

goat originated antibody = experiment: as above
Experimental: as §1

goat IgG = experiment: Cy3-labeled antibody binding to glass plate surface-treated with peptide hybrid (fluorescence); details: fluorescence image
Experimental: as §2

BSA = BSA (Bos taurus, UniProt P02769); experiment: SPR binding capacity on peptide-hybrid-treated CM-5 Au sensor chip (control protein)
Experimental: as §1

MIgG1 = target: T3, MIgG1 (Mus musculus, UniProt P01868); experiment: SPR binding capacity, antibody isotypes; details: CM-5 Au sensor chip
T3 construct: purchased Sigma-Aldrich (USA)
Experimental: as §1

[11] = Storage stability of glass plate surface-treated with peptide hybrid; type: physicochemical; details: several months storage at room temperature
Experimental: The glass plate was treated with a mixed solution of 95% sulfuric acid and 5% hydrogen peroxide (V/V 3:1) at 60° C. for 30 minutes, followed by washing with distilled water and ethanol. The washed glass plate was soaked in 1% APTS, followed by reaction for 4 hours at room temperature to introduce amine group. The amine group introduced glass plate was reacted in 1 M succinic anhydride-DMF solution at 37° C. for 4 hours to generate carboxyl group on the glass plate. The glass plate was washed with distilled water and ethanol and dried using nitrogen gas and then stored in a vacuum drier. The carboxyl group introduced glass plate was treated with a mixed solution of 0.1 M EDC and 0.025 M NHS for 15 minutes to activate its surface. The activated glass plate was washed with distilled water and dried using nitrogen gas. The peptide hybrid for protein immobilization of 1a was dissolved in PBS containing 40% glycerol at the final concentration of 0.5 mg/ml, which was dropped on the glass plate by 1 μl per each drop, followed by reaction for 2 hours. The non-reacted active ester remaining on the glass plate was inactivated by using 1 M of ethanolamine (pH 8.5) and washed with PBS.
The Cy3 labeled antibody solution was dropped on the glass plate surface-treated with the hybrid of 1a by 50 μl per each drop, followed by reaction for one hour at room temperature. […]

[12] = test system: MIgG (mixture of MIgG 1-MIgG 3); experiment: Cy3-labeled antibody binding to glass plate surface-treated with peptide hybrid (fluorescence); parameters: species or system mouse; details: fluorescence image
Experimental: as §2

HIgG3 = experiment: SPR binding capacity, antibody isotypes; parameters: species or system human; details: CM-5 Au sensor chip
Experimental: as §1

HIgG2 = experiment: SPR binding capacity, antibody isotypes; parameters: species or system human; details: CM-5 Au sensor chip
Experimental: as §1

HIgG1 [13] = experiment: SPR binding capacity, antibody isotypes; parameters: species or system human; details: CM-5 Au sensor chip
Experimental: as §1

H2N(CH2CH2O)nCH2CH2COXDC*AWHLGELVWC*T-CONH2 [formula 1]
binding to the different types of antibodies (SPR) [1]: strongly attached | binding to human originated antibodies (SPR), in words [2]: strongly bound | binding to rabbit originated antibodies (SPR), in words (rabbit originated IgG [3]): strongly bound

CC(C)C[C@@H]1NC(=O)[C@H](Cc2c[nH]cn2)NC(=O)[C@H](Cc2c[nH]c3ccccc23)NC(=O)[C@H](C)NC(=O)[C@@H](NC(=O)[C@H](CC(=O)O)NC(=O)[C@H](CC(=O)O)NC(=O)[C@H](CCC(=O)O)NC(=O)CCOCCOCCN)CSSC[C@@H](C(=O)N[C@H](C(N)=O)[C@@H](C)O)NC(=O)[C@H](Cc2c[nH]c3ccccc23)NC(=O)[C@H](C(C)C)NC(=O)[C@H](CC(C)C)NC(=O)[C@H](CCC(=O)O)NC(=O)CNC1=O [formula 1a, H2N(CH2CH2O)2CH2CH2COEDDC*AWHLGELVWC*T-CONH2]
binding of human originated antibodies to glass plate [4]: bound very well | binding to MIgGA (SPR), in words (MIgGA): hardly bound | binding to MIgG2 (SPR), in words (MIgG2): hardly bound | binding to MIgG3 (SPR), in words (MIgG3): to some degree | binding to mouse originated IgG, magnetic micro bead (mouse originated IgG): not | binding to goat originated IgG, magnetic micro bead (goat originated IgG): not | binding to rabbit originated IgG, magnetic micro bead (rabbit originated IgG [5]): effectively bound | binding to human originated HIgG, magnetic micro bead (human originated HIgG): effectively bound | binding of rabbit originated antibodies to glass plate (rabbit IgG [6]): bound very well | antigen-antibody binding capacity relative to chip with chemically immobilized anti-CRP antibody (CRP): approximately 1.6 fold | Kd (HIgG1 [7]): 85 nM | antibody binding capacity of the peptide-treated surface after washing with 20 mM NaOH [8]: without reducing the antibody binding capacity; also recorded: antibody binding capacity was not reduced | Kd (rabbit IgG [9]): 305 nM | binding to human originated antibodies (SPR), in words [2]: immobilized effectively | SPR binding level, human originated IgG ([2]; saturated level): 12000 RU | binding to mouse originated antibodies (SPR), in words [10]: not successfully immobilized; also recorded: only at minimum level | binding to goat originated antibody (SPR), in words (goat originated antibody): not successfully immobilized; also recorded: only at minimum level | binding to rabbit originated antibodies (SPR), in words (rabbit originated IgG [3]): immobilized effectively | SPR binding level, rabbit originated IgG (rabbit originated IgG [3]; saturated level): 12000 RU | binding of goat originated antibodies to glass plate (goat IgG): not bound well | binding to BSA (SPR), in words (BSA): not bound | binding to MIgG1 (SPR), in words (MIgG1): hardly bound | antibody binding capacity of surface-treated glass plate after storage [11]: maintain its antibody binding capacity | binding of mouse originated antibodies to glass plate [12]: not bound well | binding to HIgG3 (SPR), in words (HIgG3): barely bound | binding to HIgG2 (SPR), in words (HIgG2): particularly strongly bound; also recorded: effectively bound | binding to HIgG1 (SPR), in words (HIgG1 [13]): particularly strongly bound; also recorded: effectively bound
